Assays:
[1] = Free available chlorine over time in 1:1 mixtures of chelating agent solutions with 3% NaOCl; format: physicochemical; settings: for ability to maintain initial available chlorine, in words: after 1 hour, HEDP only above a pH of 11
[2] = Organic tissue dissolution capacity of antiseptic and chelating solutions (mass loss of tissue samples, FIG. 4); settings: 30 mL aqueous solution, 30 minutes
Protocol: Since the smear layer produced upon mechanical debridement of infected dental hard tissues includes both organic and inorganic dentin components, an investigation was conducted to determine the organic tissue dissolution capacity of various antiseptics and chelating solutions that are commonly used in dentistry and medical applications. For this purpose, soft tissue samples were incubated in aqueous solutions containing the agents to be studied and the mass loss of the tissue samples was measured. The results are collected in FIG. 4, where the average mass loss is given as a percentage fraction of the initial weight. FIG. 4 illustrates the mass loss (Mean %) of tissue samples incubated in 30 mL of aqueous solutions of various agents after 30 minutes. […] It can be seen that high concentrations of NaOCl along with the addition of surfactants (anionic and nonionic) tended to increase the tissue dissolution rate.

[3] = Mass loss of tissue samples in sodium hypochlorite at different pH values (FIG. 6); settings: 30 mL sodium hypochlorite, 30 minutes
From the text: The organic tissue dissolution capacity of NaOCl may be a function of free available chlorine in solution and a function of alkalinity. As pH increases to above […] the proportion of the hypochlorite anion (OCl^−) to hypochlorous acid (HOCl) dramatically increases. Below this pH, the concentration of hypochlorite anion decreases and the concentration of HOCl increases (see FIG. 5, which illustrates the chlorine speciation profile as a function of pH). […] However, as the concentration of the hypochlorite ions decreases, the tissue dissolution capacity also decreases (see FIG. 6, which illustrates mass loss of tissue samples incubated in 30 mL of sodium hypochlorite at different pH values after 30 minutes.). In certain aspects of the invention, the medicament comprises HOCl and OCl— and has a pH between 8 and 10.

[4] = Smear layer removal from instrumented root canals (smear layer score); settings: score 1 = very little smear layer remaining, 5 = heavy smear layer present
From the text: (§1) A score of 1 indicates very little smear layer remaining, whereas a score of 5 indicates heavy smear layer present.

[5] = Preliminary investigation of smear layer removal (calcium chelation)
From the text: as §1

CC(O)(P(=O)(O)O)P(=O)(O)O [HEDP, 1-hydroxyethylidene-1,1-diphosphonic acid]
Free Available Chlorine Remaining Post Mix (hours): 0 ([1]; 0 h, HEDP 15% at pH 11.1, 1:1 mix with 3% NaOCl): 100%
Free Available Chlorine Remaining Post Mix (hours): 1 ([1]; 1 h, HEDP 15% at pH 11.1, 1:1 mix with 3% NaOCl): 80%
Free Available Chlorine Remaining Post Mix (hours): 4 ([1]; 4 h, HEDP 15% at pH 11.1, 1:1 mix with 3% NaOCl): 40%
Free Available Chlorine Remaining Post Mix (hours): 24 ([1]; 24 h, HEDP 15% at pH 11.1, 1:1 mix with 3% NaOCl): 20%
ability to maintain initial available chlorine, in words [1]: able to maintain most of their initial available chlorine

OCl [NaOCl, sodium hypochlorite]
mass loss of tissue samples (FIG. 4), in words [2]: largest mass loss
capability of dissolving organic tissue as a function of pH (FIG. 6), in words [3]: most capable of dissolving organic tissue at a pH above 8
residual smear layer score, Apical ([4]; apical root canal third): 3.5
residual smear layer score, Coronal ([4]; coronal root canal third): 3.2
residual smear layer score, Middle ([4]; middle root canal third): 3.6

O=P(O)(O)O[C@H]1[C@H](OP(=O)(O)O)[C@@H](OP(=O)(O)O)[C@H](OP(=O)(O)O)[C@@H](OP(=O)(O)O)[C@H]1OP(=O)(O)O [PA, phytic acid (C6H6[OPO(OH)2]6)]
calcium chelator strength, in words [5]: relatively weak calcium chelators
ability to maintain initial available chlorine, in words [1]: able to maintain most of their initial available chlorine

O=C(O)CCC(CC(=O)O)(C(=O)O)P(=O)(O)O (stereo not drawn) [PBTC, 2-phosphonobutane-1,2,4,-tricarboxylic Acid]
ability to maintain initial available chlorine, in words [1]: able to maintain most of their initial available chlorine

O=P1([O-])OP(=O)([O-])OP(=O)([O-])OP(=O)([O-])OP(=O)([O-])OP(=O)([O-])O1.[Na+].[Na+].[Na+].[Na+].[Na+].[Na+] [SH, sodium hexametaphosphate]
calcium chelator strength, in words [5]: relatively weak calcium chelators
ability to maintain initial available chlorine, in words [1]: able to maintain most of their initial available chlorine

Source: patent US20240000669A1, “NOVEL ENDODONTIC IRRIGANT” (INTER-MED, INC., priority 2020, published 2024)
